According to PubChem BioAssay (NCI):
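In this assay, cells in 96-well plates receive the compound at five concentrations for 48 hours. Endpoints are linearly interpolated between the surrounding concentrations. The concentration for 50% growth inhibition is given as GI50. TGI: total growth inhibition.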

Key:
Experiment in all cases: NCI anticancer screen, dose series, 48 h
EKVX NSCLC = system: EKVX NSCLC
HL-60(TB) leukemia = system: HL-60(TB) leukemia
OVCAR-8 ovarian = system: OVCAR-8 ovarian
ACHN renal = system: ACHN renal
A498 renal = system: A498 renal
OVCAR-4 ovarian = system: OVCAR-4 ovarian
NCI-H226 lung = system: NCI-H226 lung
IGROV1 ovarian = system: IGROV1 ovarian
HOP-92 NSCLC = system: HOP-92 NSCLC
SK-MEL-5 melanoma = system: SK-MEL-5 melanoma
PC-3 prostate = system: PC-3 prostate
MDA-MB-435 = system: MDA-MB-435
M14 melanoma = system: M14 melanoma
NCI-H23 lung = system: NCI-H23 lung
SNB-19 CNS = system: SNB-19 CNS
U251 CNS = system: U251 CNS
SK-OV-3 ovarian = system: SK-OV-3 ovarian
SW-620 colon = system: SW-620 colon
OVCAR-3 ovarian = system: OVCAR-3 ovarian
MALME-3M melanoma = system: MALME-3M melanoma
NCI/ADR-RES ovarian = system: NCI/ADR-RES ovarian
SF-268 CNS = system: SF-268 CNS
RPMI-8226 leukemia = system: RPMI-8226 leukemia
LOX IMVI melanoma = system: LOX IMVI melanoma
SK-MEL-28 melanoma = system: SK-MEL-28 melanoma
TK-10 renal = system: TK-10 renal
DU-145 prostate = system: DU-145 prostate
BT-549 breast = system: BT-549 breast
K-562 leukemia = system: K-562 leukemia
CAKI-1 renal = system: CAKI-1 renal
SN12C renal = system: SN12C renal
HCT-15 colon = system: HCT-15 colon
SF-539 CNS = system: SF-539 CNS
MCF7 breast = system: MCF7 breast
NCI-H522 lung = system: NCI-H522 lung
MDA-MB-231 breast = system: MDA-MB-231 breast
RXF 393 renal = system: RXF 393 renal
786-0 renal = system: 786-0 renal
UO-31 renal = system: UO-31 renal
HCT-116 colon = system: HCT-116 colon
UACC-62 melanoma = system: UACC-62 melanoma
SF-295 CNS = system: SF-295 CNS
COLO 205 colon = system: COLO 205 colon
A549 NSCLC = system: A549 NSCLC
T-47D breast = system: T-47D breast
OVCAR-5 ovarian = system: OVCAR-5 ovarian
KM12 colon = system: KM12 colon
SNB-75 CNS = system: SNB-75 CNS
HCC-2998 colon = system: HCC-2998 colon
HT29 colon = system: HT29 colon
SK-MEL-2 melanoma = system: SK-MEL-2 melanoma
HOP-62 NSCLC = system: HOP-62 NSCLC
HS 578T breast = system: HS 578T breast
MOLT-4 leukemia = system: MOLT-4 leukemia
NCI-H460 lung = system: NCI-H460 lung
CCRF-CEM leukemia = system: CCRF-CEM leukemia

For `N#Cc1c(-c2ccc(Cl)cc2)csc1NC(=O)Nc1ccc(Cl)c(C(F)(F)F)c1`, the GI50 (EKVX NSCLC) was 0.385 µM, the TGI (EKVX NSCLC) was over 50 µM and the GI50 (HL-60(TB) leukemia) was 0.793 µM. The TGI (HL-60(TB) leukemia) was 2.11 µM, the GI50 (OVCAR-8 ovarian) was 0.388 µM and the TGI (OVCAR-8 ovarian) was 15.7 µM. For the same compound, the GI50 (ACHN renal) was 0.234 µM, the TGI (ACHN renal) was 5.18 µM and the GI50 (A498 renal) was 0.536 µM. It also gave a TGI (A498 renal) of 5.68 µM, a GI50 (OVCAR-4 ovarian) of 0.691 µM and a TGI (OVCAR-4 ovarian) of 3.46 µM. The GI50 (NCI-H226 lung) was 1.12 µM, the TGI (NCI-H226 lung) was 12.4 µM and the GI50 (IGROV1 ovarian) was 0.626 µM. The TGI (IGROV1 ovarian) was 18.7 µM, the GI50 (HOP-92 NSCLC) was 0.222 µM and the TGI (HOP-92 NSCLC) was 2.09 µM. The GI50 (SK-MEL-5 melanoma) was 0.639 µM, the TGI (SK-MEL-5 melanoma) was 3.7 µM and the GI50 (PC-3 prostate) was 0.161 µM. The TGI (PC-3 prostate) was 2.04 µM, the GI50 (MDA-MB-435) was 1.49 µM and the TGI (MDA-MB-435) was over 50 µM. It also gave a GI50 (M14 melanoma) of 1.14 µM, a TGI (M14 melanoma) of 8.35 µM and a GI50 (NCI-H23 lung) of 0.201 µM. For the same compound, the TGI (NCI-H23 lung) was 16.7 µM, the GI50 (SNB-19 CNS) was 1.27 µM and the TGI (SNB-19 CNS) was 35.2 µM. The GI50 (U251 CNS) was 0.607 µM, the TGI (U251 CNS) was 1.91 µM and the GI50 (SK-OV-3 ovarian) was 2.49 µM. It also gave a TGI (SK-OV-3 ovarian) of 14.4 µM, a GI50 (SW-620 colon) of 0.255 µM and a TGI (SW-620 colon) of 2.95 µM. The GI50 (OVCAR-3 ovarian) was 0.262 µM, the TGI (OVCAR-3 ovarian) was 1.47 µM and the GI50 (MALME-3M melanoma) was 1.01 µM. For the same compound, the TGI (MALME-3M melanoma) was 3.94 µM, the GI50 (NCI/ADR-RES ovarian) was 0.536 µM and the TGI (NCI/ADR-RES ovarian) was 13.4 µM. The GI50 (SF-268 CNS) was 1.29 µM, the TGI (SF-268 CNS) was 21.3 µM and the GI50 (RPMI-8226 leukemia) was 0.153 µM. For the same compound, the TGI (RPMI-8226 leukemia) was 1.14 µM, the GI50 (LOX IMVI melanoma) was 1.14 µM and the TGI (LOX IMVI melanoma) was 7.38 µM. It also gave a GI50 (SK-MEL-28 melanoma) of 1.85 µM, a TGI (SK-MEL-28 melanoma) of 40.1 µM and a GI50 (TK-10 renal) of 0.757 µM. For the same compound, the TGI (TK-10 renal) was 11.1 µM, the GI50 (DU-145 prostate) was 0.527 µM and the TGI (DU-145 prostate) was 11.2 µM. It also gave a GI50 (BT-549 breast) of 1.21 µM, a TGI (BT-549 breast) of 4.54 µM and a GI50 (K-562 leukemia) of 0.177 µM. It also gave a TGI (K-562 leukemia) of 6.27 µM, a GI50 (CAKI-1 renal) of 0.691 µM and a TGI (CAKI-1 renal) of 5.57 µM. The GI50 (SN12C renal) was 0.348 µM, the TGI (SN12C renal) was over 50 µM and the GI50 (HCT-15 colon) was 0.208 µM. The TGI (HCT-15 colon) was 5.4 µM, the GI50 (SF-539 CNS) was 1.5 µM and the TGI (SF-539 CNS) was 6.96 µM. The GI50 (MCF7 breast) was 0.229 µM, the TGI (MCF7 breast) was 11.1 µM and the GI50 (NCI-H522 lung) was 0.121 µM. The TGI (NCI-H522 lung) was 0.55 µM, the GI50 (MDA-MB-231 breast) was 0.995 µM and the TGI (MDA-MB-231 breast) was 6.24 µM. It also gave a GI50 (RXF 393 renal) of 2.05 µM, a TGI (RXF 393 renal) of 17.4 µM and a GI50 (786-0 renal) of 3.18 µM. For the same compound, the TGI (786-0 renal) was 13.4 µM, the GI50 (UO-31 renal) was 1.47 µM and the TGI (UO-31 renal) was over 50 µM. For the same compound, the GI50 (HCT-116 colon) was 0.224 µM, the TGI (HCT-116 colon) was 6.42 µM and the GI50 (UACC-62 melanoma) was 0.326 µM. The TGI (UACC-62 melanoma) was 8.64 µM, the GI50 (SF-295 CNS) was 0.326 µM and the TGI (SF-295 CNS) was 1.87 µM. The GI50 (COLO 205 colon) was 0.895 µM, the TGI (COLO 205 colon) was 2.58 µM and the GI50 (A549 NSCLC) was 0.63 µM. It also gave a TGI (A549 NSCLC) of 12.4 µM, a GI50 (T-47D breast) of 0.106 µM and a TGI (T-47D breast) of 0.696 µM. For the same compound, the GI50 (OVCAR-5 ovarian) was 4.77 µM, the TGI (OVCAR-5 ovarian) was over 50 µM and the GI50 (KM12 colon) was 0.251 µM. It also gave a TGI (KM12 colon) of 6.96 µM, a GI50 (SNB-75 CNS) of 1.36 µM and a TGI (SNB-75 CNS) of 7.72 µM. For the same compound, the GI50 (HCC-2998 colon) was 1.33 µM, the TGI (HCC-2998 colon) was 17.1 µM and the GI50 (HT29 colon) was 0.56 µM. For the same compound, the TGI (HT29 colon) was 3.54 µM, the GI50 (SK-MEL-2 melanoma) was 0.872 µM and the TGI (SK-MEL-2 melanoma) was 7.35 µM. The GI50 (HOP-62 NSCLC) was 1.01 µM, the TGI (HOP-62 NSCLC) was 4.42 µM and the GI50 (HS 578T breast) was 1.36 µM. For the same compound, the TGI (HS 578T breast) was 8.24 µM, the GI50 (MOLT-4 leukemia) was 0.605 µM and the TGI (MOLT-4 leukemia) was 5.06 µM. It also gave a GI50 (NCI-H460 lung) of 0.209 µM, a TGI (NCI-H460 lung) of 1.2 µM and a GI50 (CCRF-CEM leukemia) of 0.243 µM. For the same compound, the TGI (CCRF-CEM leukemia) was 7.67 µM.
